pIC50: −log10 of the molar value.
Key:
[1] = test system: NCI-H1373 (human lung adenocarcinoma) cells; experiment: Cell proliferation assay (CellTiter-Glo), NCI-H1373; assay type: cell-based; conditions: Homo sapiens, NCI-H1373, 144 h; 6 days, CellTiter-Glo; read-out: NCI-H1373 GI50
[2] = test system: HARA (human lung squamous cell carcinoma) cells; experiment: Cell proliferation assay (CellTiter-Glo), HARA; assay type: cell-based; conditions: Homo sapiens, 144 h; 6 days, CellTiter-Glo; read-out: HARA GI50
His-GST-PARP7 = His-GST-PARP7 (Homo sapiens (Human), UniProt Q7Z3E1); experiment: PARP7 biochemical assay; conditions: read-out: PARP7 IC50
Chain of His-GST-PARP7 (Q7Z3E1 whole entry): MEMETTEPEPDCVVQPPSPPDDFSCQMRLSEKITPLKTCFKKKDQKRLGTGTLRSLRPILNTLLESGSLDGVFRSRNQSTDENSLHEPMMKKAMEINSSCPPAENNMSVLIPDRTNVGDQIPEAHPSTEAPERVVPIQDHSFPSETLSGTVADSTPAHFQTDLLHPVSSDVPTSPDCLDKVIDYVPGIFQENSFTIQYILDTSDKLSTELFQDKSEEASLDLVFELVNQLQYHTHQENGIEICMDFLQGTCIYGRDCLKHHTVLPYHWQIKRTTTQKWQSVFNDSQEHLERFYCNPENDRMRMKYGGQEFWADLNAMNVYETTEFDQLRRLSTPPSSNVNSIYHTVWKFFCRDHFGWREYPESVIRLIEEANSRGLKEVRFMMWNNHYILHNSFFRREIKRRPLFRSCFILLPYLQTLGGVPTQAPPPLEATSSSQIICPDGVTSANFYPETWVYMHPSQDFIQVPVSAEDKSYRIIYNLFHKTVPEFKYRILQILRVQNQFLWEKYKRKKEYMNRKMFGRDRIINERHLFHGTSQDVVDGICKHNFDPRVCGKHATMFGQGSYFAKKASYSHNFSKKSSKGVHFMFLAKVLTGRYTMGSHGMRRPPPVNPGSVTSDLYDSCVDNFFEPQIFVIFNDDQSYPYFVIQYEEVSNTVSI

Structure (SMILES) | GI50 [1] | GI50 [2] | pIC50 (His-GST-PARP7)
O=C(c1cc(Cc2n[nH]c(=O)c3ccc(OC4CCC4)cc23)ccc1F)N1CCCN(C(=O)C2CC2)CC1 [Example 101, 6-Cyclobutoxy-4-(3-(4-(cyclopropanecarbonyl)-1,4-diazepane-1-carbonyl)-4-fluorobenzyl)phthalazin-1(2H)-one] | > 5000 nM | > 5000 nM | > 7.30
O=C(c1cc(Cc2n[nH]c(=O)c3ccc(OC4CCC4)cc23)ccc1F)N1CCN(c2ncc(C(F)(F)F)cn2)CC(F)(F)C1 [Example 126, 6-Cyclobutoxy-4-(3-(6,6-difluoro-4-(5-(trifluoromethyl)pyrimidin-2-yl)-1,4-diazepane-1-carbonyl)-4-fluorobenzyl)phthalazin-1(2H)-one] | 100 to 1000 nM | > 5000 nM | > 7.30
N#Cc1cnc(N2CCN(C(=O)c3cc(Cc4n[nH]c(=O)c5ccc(OC6CCC6)cc45)ccc3F)CC2)c(C(F)(F)F)c1 [Example 129, 6-(4-(5-((7-cyclobutoxy-4-oxo-3,4-dihydrophthalazin-1-yl)methyl)-2-fluorobenzoyl)piperazin-1-yl)-5-(trifluoromethyl)nicotinonitrile] | 1000 to 5000 nM | 1000 to 5000 nM | > 7.30
O=C(c1cc(Cc2n[nH]c(=O)c3ccc(OC4CCC4)cc23)ccc1F)N1CCN(c2ccc(CO)cn2)CC1 [Example 130, 6-cyclobutoxy-4-(4-fluoro-3-(4-(5-(hydroxymethyl)pyridin-2-yl)piperazine-1-carbonyl)benzyl)phthalazin-1(2H)-one] | 100 to 1000 nM | > 5000 nM | > 7.30
COc1cc(C#N)cnc1N1CCN(C(=O)c2cc(Cc3n[nH]c(=O)c4ccc(OC5CCC5)cc34)ccc2F)CC1 [Example 131, 6-(4-(5-((7-cyclobutoxy-4-oxo-3,4-dihydrophthalazin-1-yl)methyl)-2-fluorobenzoyl)piperazin-1-yl)-5-methoxynicotinonitrile] | 100 to 1000 nM | 1000 to 5000 nM | > 7.30
Cc1nc(N2CCN(C(=O)c3cc(Cc4n[nH]c(=O)c5ccc(OC6CCC6)cc45)ccc3F)CC2)ccc1C#N [Example 133, 6-(4-(5-((7-cyclobutoxy-4-oxo-3,4-dihydrophthalazin-1-yl)methyl)-2-fluorobenzoyl)piperazin-1-yl)-2-methylnicotinonitrile] | 100 to 1000 nM | > 5000 nM | > 7.30
Cc1cc(N2CCN(C(=O)c3cc(Cc4n[nH]c(=O)c5ccc(OC6CCC6)cc45)ccc3F)CC2)ncc1C#N [Example 134, 6-(4-(5-((7-cyclobutoxy-4-oxo-3,4-dihydrophthalazin-1-yl)methyl)-2-fluorobenzoyl)piperazin-1-yl)-4-methylnicotinonitrile] | < 100 nM | 100 to 1000 nM | > 7.30
COc1nc(N2CCN(C(=O)c3cc(Cc4n[nH]c(=O)c5ccc(OC6CCC6)cc45)ccc3F)CC2)ccc1C#N [Example 136, 6-(4-(5-((7-cyclobutoxy-4-oxo-3,4-dihydrophthalazin-1-yl)methyl)-2-fluorobenzoyl)piperazin-1-yl)-2-methoxynicotinonitrile] | 100 to 1000 nM | > 5000 nM | 7.00 to 7.30
O=C(c1cc(Cc2n[nH]c(=O)c3ccc(OC4CCC4)cc23)ccc1F)N1CCN(c2ccc(C(F)(F)F)cn2)CC1 [Example 155, 6-cyclobutoxy-4-(4-fluoro-3-(4-(5-(trifluoromethyl)pyridin-2-yl)piperazine-1-carbonyl)benzyl)phthalazin-1(2H)-one] | < 100 nM | 1000 to 5000 nM | > 7.30
O=C(c1cc(Cc2n[nH]c(=O)c3ccc(OC4CCC4)cc23)ccc1F)N1CCN(c2cnc(C(F)(F)F)cn2)CC1 [Example 160, 6-cyclobutoxy-4-(4-fluoro-3-(4-(5-(trifluoromethyl)pyrazin-2-yl)piperazine-1-carbonyl)benzyl)phthalazin-1(2H)-one] | < 100 nM | 1000 to 5000 nM | > 7.30
